{"source": "patent US11484511B2", "about": "“Pharmaceutical composition comprising THA as effective ingredient for treatment of prostate cancer” (KOREA UNITED PHARM. INC., priority 2018, dated 2022)", "type_in_all_cases": "cell-based", "key": {"C4-2 cells [1]": {"tested_on": "C4-2 cells", "assay": "Real-time cell proliferation analysis (INCUCYTE ZOOM)", "conditions": "THA 3, 10, 30 μM, BI2536 1-100 nM, PPG 3-100 μM, 68 hours", "method": "(§1) LnCaP cells, PC3 cells which are androgen receptor (AR)-negative cells, and C4-2 cells showing castration resistance were cultured using an RPMI-1640 medium (Hyclone, Logan, Utah, USA) containing 10% fetal bovine serum (FBS) (Hyclone, Logan, Utah, USA) and 1% penicillin/streptomycin.\n(§2) In order to measure cell proliferation, cells were plated onto a 96-well dish (5×10^3 cells/well). After treatment with a drug, the number of live cells was measured at 4-hour intervals using an INCUCYTE™ ZOOM Live Cell Analysis System (Essen Bioscience, Ann Arbor, Mich., USA).\n(§3) In order to comparatively observe the cell proliferation inhibitory effects after treatment of prostate cancer cells with THA, a 1 M solution was prepared by diluting 0.168 g of THA (molecular weight: 168.15) with 1 ml DMSO. After the prostate cancer cell lines (LnCaP, PC3, and C4-2) cultured by the method in Example 1-2 were treated with THA (3, 10, and 30 μM), PLK1 inhibitor BI2536 (1, 5, 10, 50, and 100 nM), and purpurogallin (PPG) (3, 10, 30, and 100 μM), the cell proliferation inhibitory effects were comparatively observed by the real-time cell proliferation analysis method for 68 hours according to Example 1-4 during."}, "PC3 cells [2]": {"tested_on": "PC3 cells", "assay": "Real-time cell proliferation analysis (INCUCYTE ZOOM)", "conditions": "THA 3, 10, 30 μM, BI2536 1-100 nM, PPG 3-100 μM, 68 hours", "method": "as §1, §2, §3"}, "C4-2 cells [3]": {"tested_on": "C4-2 cells", "assay": "Cleaved caspase-3 (CC3) expression by immunochemical analysis", "conditions": "for induction of apoptosis: 30 μM THA or 5 nM BI2536, 48 hours", "method": "(§4) Sodium dodecyl sulfate-polyacrylamide gel electrophoresis (SDS-PAGE) was performed using a gel electrophoresis apparatus (Mighty Small SE250, Hoefer Scientific Instruments, San Francisco). After a cell lysate fraction was diluted in a sample dilution buffer solution [63 mM Tris (pH 6.8), 10% glycerol, 2% SDS, 0.0013% bromophenol blue, and 5% β-mercaptoethanol], electrophoresis was performed in an electrode buffer solution (15 g of Tris, 72 g of glycerin, and 5 g of SDS were contained in a 1 L solution) using 8 to 12% gel. Proteins were electrophoretically transferred from the gel to a nitrocellulose membrane at 190 mAmps for 70 minutes in a transfer buffer solution (25 mM Tris, 192 mM glycerin, and 20% v/v methanol (pH 8.3)) using a transfer electrophoresis apparatus. After a primary antibody was reacted with the nitrocellulose membrane, a secondary antibody was reacted with horseradish peroxidase-conjugated goat anti-rabbit IgG and horseradish peroxidase-conjugated goat anti-mouse IgG for 6 hours, and color was developed using an ECL chemiluminescence system (Amersham, Gaithersberg, Mass.).\n(§5) Further, the degree of apoptosis was observed by confirming the changes in expression of cleaved caspase-3 (CC3) which is an active-type caspase-3 during apoptosis, and first, the C4-2 and PC3 cells cultured by the method in Example 1-2 were plated onto a 6-well plate, and then cultured during 12 hr. And then the cells were treated with 30 μM THA or 5 nM BI2536 for 48 hours. Thereafter, the changes in expression of cleaved caspase-3 (CC3) were observed by the immunochemical analysis method in Example 1-3."}, "PC3 cells [4]": {"tested_on": "PC3 cells", "assay": "Cleaved caspase-3 (CC3) expression by immunochemical analysis", "conditions": "for induction of apoptosis: 30 μM THA or 5 nM BI2536, 48 hours", "method": "as §4, §5"}, "PC3 cells [5]": {"tested_on": "PC3 cells", "assay": "Cell cycle analysis (PI / PHH3 flow cytometry)", "conditions": "30 μM THA, 5 nM BI2536, 24 hours", "method": "In order to measure the cell cycle distribution, cells were plated onto a 100 mm dish (5×10^5 cells/well). The cells were fixed with 4° C. PBS, refrigerated in 70% EtOH at 4° C., and cultured for 24 hours. After the 70% EtOH was removed, the PHH3 antibody was treated with a lysing solution composed of 1% bovine serum albumin/0.5% Triton X-100/0.2 mg/ml EDTA to a final concentration of 1:50, and then stained at 37° C. for 15 minutes. Thereafter, the lysing solution was removed, and staining was performed again at 37° C. for 15 minutes using propidium iodide (PI)/Triton X-100/DNAse-free RNAse A. Next, 20,000 cells per experimental group were analyzed using the FACSCALIBUR™ (flow cytometer from BD Biosciences, CA, USA) machine.\nPLK1 is a representative G2/M cell cycle regulatory […], and in order to confirm the effect of blocking the cell cycle of prostate cancer cells according to the treatment with THA, the PC3 cells cultured by the method in Example 1-2 were plated onto a 6-well plate, and then 12 hours later, the cells were treated with 30 μM THA and 5 nM BI2536 for 24 hours. Thereafter, changes in the cell distribution of each of the sub-G1, S, and G2/M phases and the proportion of PH3-positive cells (M phase marker) were observed by the method in Example 1-6."}, "LnCaP cells": {"tested_on": "LnCaP cells", "assay": "Real-time cell proliferation analysis (INCUCYTE ZOOM)", "conditions": "PPG 3-100 μM, 68 hours", "method": "as §1, §2, §3"}, "C4-2 cells [6]": {"tested_on": "C4-2 cells", "assay": "Real-time apoptosis analysis (caspase-3/7 fluorescence substrate)", "conditions": "30 μM THA, 48 hours", "method": "(§6) In order to measure apoptosis, cells were plated onto a 96-well dish (5×10^3 cells/well). The INCUCYTE™ ZOOM 96-well Caspase-3/7 apoptosis assay reagent (Essen Bioscience, Ann Arbor, Mich., USA) was pretreated for 3 hours, a drug was treated, and then the fluorescence expression level was measured at 4-hour intervals using an INCUCYTE™ ZOOM Live Cell Analysis System (Essen Bioscience, Ann Arbor, Mich., USA)."}, "PC3 cells [7]": {"tested_on": "PC3 cells", "assay": "Real-time apoptosis analysis (caspase-3/7 fluorescence substrate)", "conditions": "30 μM THA, 48 hours", "method": "as §6"}}, "note": "“Also recorded” adds a separate entry of the source."}
{"compound": "CC[C@@H]1C(=O)N(C)c2cnc(Nc3ccc(C(=O)NC4CCN(C)CC4)cc3OC)nc2N1C1CCCC1", "note": "[BI2536, reference compound]", "values": [{"measurement": "cell proliferation inhibitory effect", "setting": "C4-2 cells [1]", "value": "selectively inhibits cell proliferation"}, {"measurement": "cell proliferation inhibitory effect", "setting": "PC3 cells [2]", "value": "selectively inhibits cell proliferation"}, {"measurement": "induction of apoptosis", "setting": "C4-2 cells [3]", "value": "apoptosis is effectively induced"}, {"measurement": "induction of apoptosis", "setting": "PC3 cells [4]", "value": "apoptosis is effectively induced"}, {"measurement": "PHH3-positive cells (M phase marker) compared to the control", "setting": "PC3 cells [5]", "value": "a significant increase"}, {"measurement": "cell cycle progression", "setting": "PC3 cells [5]", "value": "inhibition of G2/M phase progression is induced"}]}
{"compound": "O=c1c(O)cccc2cc(O)c(O)c(O)c12", "note": "[Purpurogallin, purpurogallin, reference compound]", "values": [{"measurement": "cell proliferation inhibitory activity", "setting": "LnCaP cells", "value": "limited cell proliferation inhibitory activity"}, {"measurement": "cell proliferation inhibitory effect", "setting": "C4-2 cells [1]", "value": "a cell growth inhibitory effect that appeared to be non-selective only at a concentration of 100 uM"}, {"measurement": "cell proliferation inhibitory effect", "setting": "PC3 cells [2]", "value": "limited cell proliferation inhibitory activity"}]}
{"compound": "CC(=O)c1c(O)cc(O)cc1O", "note": "[THA, 2,4,6-trihydroxyacetophenone]", "values": [{"measurement": "cell proliferation inhibitory effect", "setting": "C4-2 cells [1]", "value": "the same cell proliferation inhibitory effects as BI2536; also recorded: selectively inhibits cell proliferation"}, {"measurement": "cell proliferation inhibitory effect", "setting": "PC3 cells [2]", "value": "the same cell proliferation inhibitory effects as BI2536; also recorded: selectively inhibits cell proliferation"}, {"measurement": "induction of apoptosis", "setting": "C4-2 cells [3]", "value": "apoptosis is effectively induced"}, {"measurement": "expression level of cleaved caspase-3", "setting": "C4-2 cells [3]; 30 μM THA, 48 hours", "value": "increased"}, {"measurement": "induction of apoptosis", "setting": "PC3 cells [4]", "value": "apoptosis is effectively induced"}, {"measurement": "expression level of cleaved caspase-3", "setting": "PC3 cells [4]; 30 μM THA, 48 hours", "value": "increased"}, {"measurement": "apoptotic index (caspase-3/7 activity)", "setting": "C4-2 cells [6]", "value": "significantly increased the apoptotic index"}, {"measurement": "apoptotic index (caspase-3/7 activity)", "setting": "PC3 cells [7]", "value": "significantly increased the apoptotic index"}, {"measurement": "PHH3-positive cells (M phase marker) compared to the control", "setting": "PC3 cells [5]", "value": "a significant increase"}, {"measurement": "cell cycle progression", "setting": "PC3 cells [5]", "value": "selectively blocked cell cycle progression at the G2/M phase"}]}
